# From patent US11932636B2, “RAD51 inhibitors” (Cyteir Therapeutics, Inc., priority 2019, dated 2024)
# Test system: Daudi cells (AID positive)
# Test: Compound primary screening: cell death in AID positive Daudi cells (Cell-Titer Glo, Day 7)
# Format: cell-based
# Details: Homo sapiens, 168 h; Daudi cells, AID positive; cell death on Day 7, Cell-Titer Glo; read-out: Cellular activity in AID + (Daudi)
# Method: Example 149. Compound Primary Screening
# AID expressing cells are dependent upon RAD51 for survival; inhibiting RAD51 in AID positive cells results in a cytotoxic effect.
# A 96 well u-bottom plate was prepared by writing the experiment number, plate number, date and initials in the top right corner of the plate lid. With a sterile 300 ml reservoir, and 25 ml serological pipette, evaporation buffer media was pipetted into reservoir in 25 ml increments. Using the liquid handler, 150 ul of evaporation buffer media was pipetted from reservoir into rows A and H, and Columns 1 and 12 of the 96 well u-bottom plate. Cell cultures were counted to obtain the density of cells per ml, and the culture viability. The cell density information was used to obtain 1,000,000 cells from culture using a 5 mL serological pipette into an epi tube. The cell density information from the culture was used to calculate the number of cells and volume of media needed for the assay to seed 1250 cells in 130 ul of media per available culture well in the 96 well u-bottom plate. Rows B through F were used for cells (50 wells in total), with row G left for an empty media control. The calculation was overestimated by 10 mL to account for the dead volume in the 300 ml reservoir. Once the media volume was calculated, the appropriate volume of media was pipetted in 25 mL increments into the 250 mL bottle using a 25 mL serological pipette. The 250 ml bottle was capped tightly, and placed into a 37° C. water bath for 2 minutes. While the culture media was warming, 10 mL of fresh media was pipetted from the 500 mL culture media bottle into a sterile 25 mL reservoir. Using the Eppendorf multichannel pipette, 130 ul of media was pipetted from the 25 mL reservoir into row G of the 96 well u-bottom plate. Once the 250 mL bottle of media was warmed, the volume of culture needed was pipetted into the bottle, and mixed gently with a 25 mL serological pipette as to not create bubbles, and then the contents of the bottle were pipetted into a new 300 mL reservoir. Using the liquid handler, 130 ul of culture was pipetted from the 300 mL reservoir into rows B through F of the 96 well u-bottom plate. Once the culture was added, the plate was placed into a 37° C. incubator until the compound master plate was prepared for use.
# Two 96 well u-bottom plates were prepared by writing the master plate name in the upper right corner of the plate lid. Labeling one DMSO master and the other Media Master. The compounds of interest were obtained from the laboratory freezer, and placed into a 25 well storage box with a lid, and set the box aside. The compounds were vortexed after thawing but before use. Using an automatic multichannel pipette, 20 ul of 100% DMSO was pipetted into wells B3-B11 through G3-G11 of the DMSO master plate. For each compound on the master plate, 50 ul of the compound were pipetted in the appropriate well of row 2 (reference plate map to determine appropriate well). A serial dilution was prepared beginning by aspirating 20 ul from row 2 and mixing with row 3, repeating until row 11 was reached. Using the liquid handler, 194 ul of Daudi media was dispensed into wells B2-B11 through G2-G11 of the Media master plate. Using the liquid handler, 6 ul from the DMSO master plate was aspirated and dispensed into the media master plate, mixing 100 ul twice.
# Compounds from master plate were then added to the culture plate. The culture plates were removed from the incubator, and set inside the biosafety cabinet. Using a liquid handler, 20 ul from wells B2 to B11 through G2 to G11 of master plate were aspirated, and dispensed into wells B2 to B11 through G2 to G11 of culture plate. This set was continued with each culture plate. Once the culture plates acquired their 20 ul of compound dilutions, they were placed back into the incubator, until their reads on Day 7 of experiment.
# Cell death was measured on Day 7 of the experiment using Cell-Titer Glo and a Promega Plate reader.
row,Structure (SMILES),EC50 [nM]
1,"CCNS(=O)(=O)c1cc(C#N)ccc1-c1cnc([C@H]2CC[C@H](NC(=O)OC(C)C)CC2)s1 [Compound 36, isopropyl trans-N-[4-[5-[4-cyano-2-(ethylsulfamoyl)phenyl]thiazol-2-yl]cyclohexyl]carbamate]",1000 to 10000
2,"CC(C)OC(=O)N[C@H]1CC[C@H](c2ncc(-c3ccc(Nc4ncc[nH]4)cc3S(=O)(=O)NC(C)(C)C)s2)CC1 [Compound 38, isopropyl trans-N-[4-[5-[2-(tert-butylsulfamoyl)-4-(1H-imidazol-2-ylamino)phenyl]thiazol-2-yl]cyclohexyl]carbamate]",< 100
3,"CC(C)NC(=O)Cc1ccc(-c2cnc([C@H]3CC[C@H](NC(=O)OC(C)C)CC3)s2)c(S(=O)(=O)NC(C)(C)C)c1 [Compound 40, isopropyl trans-N-[4-[5-[2-(tert-butylsulfamoyl)-4-[2-(isopropylamino)-2-oxo-ethyl]phenyl]thiazol-2-yl]cyclohexyl]carbamate]",< 100
4,"CC(C)NC(=O)Cc1ccc(-c2cnc([C@H]3CC[C@H](NC(=O)OC4COC4)CC3)s2)c(S(=O)(=O)NC(C)(C)C)c1 [Compound 41, oxetan-3-yl (trans-4-(5-(2-(N-(tert-butyl)sulfamoyl)-4-(2-(isopropylamino)-2-oxoethyl)phenyl)thiazol-2-yl)cyclohexyl)carbamate]",100 to 1000
5,"CC(C)OC(=O)N[C@H]1CC[C@H](c2ncc(-c3ccc(Nc4ncco4)cc3S(=O)(=O)NC(C)(C)C)s2)CC1 [Compound 42, isopropyl (trans-4-(5-(2-(N-(tert-butyl)sulfamoyl)-4-(oxazol-2-ylamino)phenyl)thiazol-2-yl)cyclohexyl)carbamate]",< 100
6,"CC(C)OC(=O)N[C@H]1CC[C@H](c2ncc(-c3ccccc3S(N)(=O)=O)s2)CC1 [Compound 44, isopropyl trans-N-[4-[5-(2-sulfamoylphenyl)thiazol-2-yl]cyclohexyl]carbamate]",1000 to 10000
7,"CCNS(=O)(=O)c1ccccc1-c1cnc([C@H]2CC[C@H](NC(=O)OC(C)C)CC2)s1 [Compound 45, isopropyl (trans-4-(5-(2-(N-ethylsulfamoyl)phenyl)thiazol-2-yl)cyclohexyl)carbamate]",1000 to 10000
8,"CC(C)OC(=O)N[C@H]1CC[C@H](c2ncc(-c3ccccc3S(=O)(=O)NC(C)(C)C)s2)CC1 [Compound 46, isopropyl (trans-4-(5-(2-(N-(tert-butyl)sulfamoyl)phenyl)thiazol-2-yl)cyclohexyl)carbamate]",1000 to 10000
9,"CCNS(=O)(=O)c1cc(C(=O)O)ccc1-c1cnc([C@H]2CC[C@H](NC(=O)OC(C)C)CC2)s1 [Compound 48, trans-3-(ethylsulfamoyl)-4-[2-[4-(isopropyloxycarbonyl-amino)cyclohexyl]thiazol-5-yl]benzoic acid]",1000 to 10000
10,"CCNS(=O)(=O)c1cc(C(N)=O)ccc1-c1cnc([C@H]2CC[C@H](NC(=O)OC(C)C)CC2)s1 [Compound 49, isopropyl trans-N-[4-[5-[4-carbamoyl-2-(ethylsulfamoyl)phenyl]thiazol-2-yl]cyclohexyl]carbamate]",100 to 1000
11,"CCNS(=O)(=O)c1cc(C(=O)NC(C)C)ccc1-c1cnc([C@H]2CC[C@H](NC(=O)OC(C)C)CC2)s1 [Compound 50, isopropyl (trans-4-(5-(2-(N-ethylsulfamoyl)-4-(isopropylcarbamoyl)phenyl)thiazol-2-yl)cyclohexyl)carbamate]",100 to 1000
12,"CCNS(=O)(=O)c1cc(COCC(C)C)ccc1-c1cnc([C@H]2CC[C@H](NC(=O)OC(C)C)CC2)s1 [Compound 51, isopropyl (trans-4-(5-(2-(N-ethylsulfamoyl)-4-(isobutoxymethyl)phenyl)thiazol-2-yl)cyclohexyl)carbamate]",100 to 1000
13,"CCNS(=O)(=O)c1cc(COCC(C)C)ccc1-c1cnc([C@H]2CC[C@H](NC(=O)OC3COC3)CC2)s1 [Compound 52, oxetan-3-yl trans-N-[4-[5-[2-(ethylsulfamoyl)-4-(isobutoxy-methyl)phenyl]thiazol-2-yl]cyclohexyl]carbamate]",100 to 1000
14,"CC(C)OC(=O)N[C@H]1CC[C@H](c2ncc(-c3ccc(C#N)cc3S(=O)(=O)N3CCC3)s2)CC1 [Compound 54, isopropyl trans-N-[4-[5-[2-(azetidin-1-ylsulfonyl)-4-cyano-phenyl]thiazol-2-yl]cyclohexyl]carbamate]",1000 to 10000
15,"CCNS(=O)(=O)c1cc(Nc2ncc[nH]2)ccc1-c1cnc([C@H]2CC[C@H](NC(=O)OC(C)C)CC2)s1 [Compound 56, isopropyl trans-N-[4-[5-[2-(ethylsulfamoyl)-4-(1H-imidazol-2-ylamino)phenyl]thiazol-2-yl]cyclohexyl]carbamate]",< 100
16,"CCNS(=O)(=O)c1cc(CC(=O)NC(C)C)ccc1-c1cnc([C@H]2CC[C@H](NC(=O)OC(C)C)CC2)s1 [Compound 58, isopropyl trans-N-[4-[5-[2-(ethylsulfamoyl)-4-[2-(isopropylamino)-2-oxo-ethyl]phenyl]thiazol-2-yl]cyclohexyl]carbamate]",100 to 1000
17,"CCNS(=O)(=O)c1cc(CC(=O)NC(C)C)ccc1-c1cnc([C@H]2CC[C@H](NC(=O)OC3COC3)CC2)s1 [Compound 59, oxetan-3-yl (trans-4-(5-(2-(N-ethylsulfamoyl)-4-(2-(isopropylamino)-2-oxoethyl)phenyl)thiazol-2-yl)cyclohexyl)carbamate]",100 to 1000
18,"CCNS(=O)(=O)c1cc(Nc2ncco2)ccc1-c1cnc([C@H]2CC[C@H](NC(=O)OC(C)C)CC2)s1 [Compound 60, isopropyl (trans-4-(5-(2-(N-ethylsulfamoyl)-4-(oxazol-2-ylamino)phenyl)thiazol-2-yl)cyclohexyl)carbamate]",< 100
19,"CCNS(=O)(=O)c1cc(C(=O)O)ccc1-c1cnc([C@H]2CC[C@H](NC(=O)OC3COC3)CC2)s1 [Compound 66, trans-3-(ethylsulfamoyl)-4-[2-[4-(oxetan-3-yloxy-carbonylamino)cyclohexyl]thiazol-5-yl]benzoic acid]",1000 to 10000
20,"CCNS(=O)(=O)c1cc(C(N)=O)ccc1-c1cnc([C@H]2CC[C@H](NC(=O)OC3COC3)CC2)s1 [Compound 67, oxetan-3-yl trans-N-[4-[5-[4-carbamoyl-2-(ethylsulfamoyl)phenyl]thiazol-2-yl]cyclohexyl]carbamate]",1000 to 10000
21,"CCNS(=O)(=O)c1cc(C(=O)NC(C)C)ccc1-c1cnc([C@H]2CC[C@H](NC(=O)OC3COC3)CC2)s1 [Compound 68, oxetan-3-yl (trans-4-(5-(2-(N-ethylsulfamoyl)-4-(isopropylcarbamoyl)phenyl)thiazol-2-yl)cyclohexyl)carbamate]",100 to 1000
22,"CCNS(=O)(=O)c1cc(NC2(C(C)C)COC2)ccc1-c1cnc([C@H]2CC[C@H](NC(=O)OC(C)C)CC2)s1 [Compound 69, isopropyl trans-N-[4-[5-[2-(ethylsulfamoyl)-4-[(3-isopropyloxetan-3-yl)amino]phenyl]thiazol-2-yl]cyclohexyl]carbamate]",< 100
23,"CCNS(=O)(=O)c1cc(NC2(CC(C)C)COC2)ccc1-c1cnc([C@H]2CC[C@H](NC(=O)OC(C)C)CC2)s1 [Compound 70, isopropyl trans-N-[4-[5-[2-(ethylsulfamoyl)-4-[(3-isobutyloxetan-3-yl)amino]phenyl]thiazol-2-yl]cyclohexyl]carbamate]",100 to 1000
24,"CCNS(=O)(=O)c1cc(C(=O)OC)ccc1-c1cnc([C@H]2CC[C@H](NC(=O)OC(C)C)CC2)s1 [Compound 71, methyl trans-3-(ethylsulfamoyl)-4-[2-[4-(isopropoxycarbonyl-amino)cyclohexyl]thiazol-5-yl]benzoate]",1000 to 10000
25,"CCNS(=O)(=O)c1cc(CO)ccc1-c1cnc([C@H]2CC[C@H](NC(=O)OC(C)C)CC2)s1 [Compound 72, isopropyl trans-N-[4-[5-[2-(ethylsulfamoyl)-4-(hydroxymethyl)phenyl]thiazol-2-yl]cyclohexyl]carbamate]",1000 to 10000
